Columns and labels:
Assay in all cases: combination Emax (second highest fraction inhibited in the dose matrix, 72 h); higher = more inhibition; extreme values may be limits of the assay
[1] = tested on: GRANTA-519 (B-Cell Non-Hodgkin's Lymphoma)
How it was run: (§1)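 Cell lines in DMEM/F12 or RPMI with 10% FBS were plated in 1536-well plates, held 24 hours at 37°C, 5% CO2, then given two-drug dose matrices for 72 hours (DMSO typically 0.2%). Viability was read by CellTiter-Glo 2.0 luminescence and scaled as inhibition from 0 (vehicle wells) to 1 (blank wells). Combination Emax is the second-highest inhibition in the matrix; Bliss excess is observed combination effect minus expected EA + EB − EA·EB, EA and EB being single-agent effects.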

[2] = tested on: SCC90 (Head and Neck Carcinoma)
How it was run: as §1

[3] = tested on: NCI-H2170 (Squamous Cell Lung Carcinoma)
How it was run: as §1

[4] = tested on: NCI-H1975 (Lung Adenocarcinoma)
How it was run: as §1

[5] = tested on: KNS-62 (Squamous Cell Lung Carcinoma)
How it was run: as §1

[6] = tested on: CAL-85-1 (Breast Carcinoma)
How it was run: as §1

[7] = tested on: RPMI-8402 (T-Lymphoblastic Leukemia)
How it was run: as §1

[8] = tested on: NCI-H835 (Other Solid Carcinomas)
How it was run: as §1

[9] = tested on: BC-1 (B-Cell Non-Hodgkin's Lymphoma)
How it was run: as §1

[10] = tested on: ATN-1 (T-Lymphoblastic Leukemia)
How it was run: as §1

[11] = tested on: OCI-M1 (Acute Myeloid Leukemia)
How it was run: as §1

[12] = tested on: IGROV-1 (Ovarian Carcinoma)
How it was run: as §1

[13] = tested on: DK-MG (Glioblastoma)
How it was run: as §1

[14] = tested on: JURL-MK1 (Chronic Myelogenous Leukemia)
How it was run: as §1

[15] = tested on: SBC-5 (Small Cell Lung Carcinoma)
How it was run: as §1

[16] = tested on: HT-3 (Cervical Carcinoma)
How it was run: as §1

[17] = tested on: MRK-nu-1 (Breast Carcinoma)
How it was run: as §1

[18] = tested on: NCI-H2452 (Mesothelioma)
How it was run: as §1

[19] = tested on: MG-63 (Osteosarcoma)
How it was run: as §1

[20] = tested on: NCI-H1648 (Lung Adenocarcinoma)
How it was run: as §1

| SMILES | combination Emax [1] | combination Emax [2] | combination Emax [3] | combination Emax [4] | combination Emax [5] | combination Emax [6] | combination Emax [7] | combination Emax [8] | combination Emax [9] | combination Emax [10] | combination Emax [11] | combination Emax [12] | combination Emax [13] | combination Emax [14] | combination Emax [15] | combination Emax [16] | combination Emax [17] | combination Emax [18] | combination Emax [19] | combination Emax [20] |
| --- | --- | --- | --- | --- | --- | --- | --- | --- | --- | --- | --- | --- | --- | --- | --- | --- | --- | --- | --- | --- |
| COc1cccc(OCCCN)c1-c1cc(Nc2cnc(C#N)cn2)n[nH]1 [Prexasertib] + CN(C)CCCOc1ccc(-c2ccc3ncc4c(c3c2)n(C2CCOCC2)c(=O)n4C)cn1 [AZD0156] (first compound max 1 µM, 7x7, partner max 1 µM) | 0.873 | 0.737 | 0.868 | 0.291 | 0.659 | 0.315 | 1 | 0.366 | 0.984 | 1 | 0.951 | 0.788 | 0.32 | 1 | 0.886 | 0.453 | 0.81 | 0.644 | 0.906 | 0.768 |
| Cn1cnc2c(F)c(Nc3ccc(Br)cc3Cl)c(C(=O)NOCCO)cc21 [Selumetinib] + C[C@@H]1COCCN1C2=NC(=NC(=C2)C3(CC3)[S@](=N)(=O)C)C4=C5C=CNC5=NC=C4 [AZD6738] (first compound max 10 µM, 7x7, partner max 10 µM) | 0.909 | 0.764 | 0.618 | 0.496 | 0.524 | 0.559 | 0.974 | 0.19 | 0.923 | 0.97 | 0.984 | 0.818 | 0.417 | 1 | 0.814 | 0.54 | 0.413 | 0.363 | 0.547 | 0.752 |
| CC(=O)c1c(C)c2cnc(Nc3ccc(N4CCNCC4)cn3)nc2n(C2CCCC2)c1=O [Palbociclib] + Cn1cnc2c(F)c(Nc3ccc(Br)cc3Cl)c(C(=O)NOCCO)cc21 [Selumetinib] (first compound max 10 µM, 7x7, partner max 10 µM) | 0.367 | 0.726 | 0.3 | 0.455 | 0.552 | 0.387 | 0.957 | 0.133 | 0.91 | 0.48 | 0.833 | 0.782 | 0.435 | 1 | 0.251 | 0.138 | 0.438 | 0.331 | 0.431 | 0.543 |
| COc1cccc(OCCCN)c1-c1cc(Nc2cnc(C#N)cn2)n[nH]1 [Prexasertib] + CCc1c2c(nc3ccc(O)cc13)-c1cc3c(c(=O)n1C2)COC(=O)[C@]3(O)CC [SN-38] (first compound max 1 µM, 7x7, partner max 0.3 µM) | 1 | 0.952 | 0.956 | 0.861 | 0.874 | 0.85 | 1 | 0.632 | 0.997 | 0.999 | 1 | 0.863 | 0.295 | 1 | 0.997 | 0.933 | 0.84 | 0.895 | 0.964 | 0.962 |
| NC1(C(=O)N[C@@H](CCO)c2ccc(Cl)cc2)CCN(c2ncnc3[nH]ccc23)CC1 [Capivasertib] + C[C@@H]1COCCN1C2=NC(=NC(=C2)C3(CC3)[S@](=N)(=O)C)C4=C5C=CNC5=NC=C4 [AZD6738] (first compound max 10 µM, 7x7, partner max 10 µM) | 0.892 | 0.804 | 0.809 | 0.669 | 0.738 | 0.47 | 0.997 | 0.456 | 0.94 | 0.965 | 0.985 | 0.865 | 0.494 | 1 | 0.7 | 0.575 | 0.605 | 0.72 | 0.855 | 0.746 |
| COc1nnc2ccc(N3CCC(c4ccc(OCCN5CCN(C)C(=O)[C@H]5C)cc4)CC3)nn12 [AZD5153] + C[C@@H]1COCCN1C2=NC(=NC(=C2)C3(CC3)[S@](=N)(=O)C)C4=C5C=CNC5=NC=C4 [AZD6738] (first compound max 1 µM, 7x7, partner max 10 µM) | 0.906 | 0.416 | 0.788 | 0.737 | 0.625 | 0.734 | 1 | 0.727 | 0.989 | 0.984 | 1 | 0.843 | 0.624 | 0.998 | 0.83 | 0.601 | 0.814 | 0.574 | 0.757 | 0.821 |
| CS(=O)(=O)CCNCc1ccc(-c2ccc3ncnc(Nc4ccc(OCc5cccc(F)c5)c(Cl)c4)c3c2)o1 [Lapatinib] + C[C@@H](Oc1cc(-c2cnn(C3CCNCC3)c2)cnc1N)c1c(Cl)ccc(F)c1Cl [Crizotinib] (first compound max 10 µM, 7x7, partner max 10 µM) | 0.751 | 0.946 | 0.998 | 0.631 | 0.856 | 0.944 | 0.995 | 0.459 | 0.959 | 0.988 | 0.996 | 1 | 0.925 | 1 | 0.832 | 0.234 | 0.477 | 0.804 | 0.936 | 0.971 |
| NC1(C(=O)N[C@@H](CCO)c2ccc(Cl)cc2)CCN(c2ncnc3[nH]ccc23)CC1 [Capivasertib] + CCN(CCO)CCCOc1ccc2c(Nc3cc(CC(=O)Nc4cccc(F)c4)[nH]n3)ncnc2c1 [AZD2811] (first compound max 10 µM, 7x7, partner max 1 µM) | 0.597 | 0.867 | 0.834 | 0.611 | 0.561 | 0.203 | 0.939 | 0.535 | 0.872 | 0.86 | 0.619 | 0.76 | 0.484 | 0.596 | 0.383 | 0.104 | 0.742 | 0.403 | 0.855 | 0.525 |
| NC1(C(=O)N[C@@H](CCO)c2ccc(Cl)cc2)CCN(c2ncnc3[nH]ccc23)CC1 [Capivasertib] + CC(=O)c1c(C)c2cnc(Nc3ccc(N4CCNCC4)cn3)nc2n(C2CCCC2)c1=O [Palbociclib] (first compound max 10 µM, 7x7, partner max 10 µM) | 0.227 | 0.965 | 0.527 | 0.638 | 0.599 | 0.203 | 0.947 | 0.426 | 0.928 | 0.686 | 0.61 | 0.86 | 0.523 | 1 | 0.353 | 0.2 | 0.382 | 0.474 | 0.712 | 0.567 |
| COc1cccc2c1C(=O)c1c(O)c3c(c(O)c1C2=O)C[C@@](O)(C(=O)CO)C[C@@H]3O[C@H]1C[C@H](N)[C@H](O)[C@H](C)O1 [Doxorubicin] + Cc1cc2ncnn2cc1Nc1ncc2c(n1)n(C1CCOCC1)c(=O)n2C [AZD7648] (first compound max 1 µM, 7x7, partner max 10 µM) | 0.856 | 0.603 | 0.891 | 0.932 | 0.484 | 0.634 | 1 | 0.516 | 1 | 0.996 | 0.963 | 0.611 | 0.469 | 1 | 0.77 | 0.781 | 0.695 | 0.462 | 0.896 | 0.598 |
| COc1cccc(OCCCN)c1-c1cc(Nc2cnc(C#N)cn2)n[nH]1 [Prexasertib] + O=C(c1cc(Cc2n[nH]c(=O)c3ccccc23)ccc1F)N1CCN(C(=O)C2CC2)CC1 [Olaparib] (first compound max 1 µM, 7x7, partner max 10 µM) | 0.865 | 0.679 | 0.787 | 0.299 | 0.576 | 0.548 | 1 | 0.256 | 0.986 | 1 | 0.981 | 0.705 | 0.224 | 1 | 0.914 | 0.646 | 0.674 | 0.735 | 0.822 | 0.802 |
| CN(C)CCCOc1ccc(-c2ccc3ncc4c(c3c2)n(C2CCOCC2)c(=O)n4C)cn1 [AZD0156] + O=C(c1cc(Cc2n[nH]c(=O)c3ccccc23)ccc1F)N1CCN(C(=O)C2CC2)CC1 [Olaparib] (first compound max 3 µM, partner max 3 µM) | 0.151 | 0.138 | 0.437 | 0.39 | 0.367 | 0.172 | 0.666 | 0.224 | 0.566 | 0.393 | 0.534 | 0.574 | 0.41 | 0.431 | 0.194 | 0.321 | 0.542 | 0.38 | 0.548 | 0.396 |
| Cn1cnc2c(F)c(Nc3ccc(Br)cc3Cl)c(C(=O)NOCCO)cc21 [Selumetinib] + CCN(CCO)CCCOc1ccc2c(Nc3cc(CC(=O)Nc4cccc(F)c4)[nH]n3)ncnc2c1 [AZD2811] (first compound max 10 µM, 7x7, partner max 1 µM) | 0.439 | 0.827 | 0.64 | 0.423 | 0.495 | 0.483 | 0.754 | 0.177 | 0.655 | 0.734 | 0.841 | 0.665 | 0.38 | 0.994 | 0.366 | 0.367 | 0.548 | 0.249 | 0.32 | 0.593 |

— the supplement of paper PMC11061612
